Data on 10 compounds can be found in PubChem BioAssay (NCI).

Holding throughout (assay): growth of human tumour cells (NCI), 48 h
The subject of assay [1] is ACHN renal.
For assay [2], the system named is COLO 205 colon.
Assay [3] concerns EKVX NSCLC.
Assay [4] concerns KM12 colon.
The test system of assay [5] is MCF7 breast.
For assay [6], the system named is MDA-MB-435.
Assay [7] has as its system NCI-H226 lung.
Assay [8] relates to NCI-H522 lung.
Assay [9] relates to OVCAR-3 ovarian.
For assay [10], the system named is OVCAR-4 ovarian.
Assay [11] has as its system SF-539 CNS.
Assay [12] has as its system SNB-19 CNS.
The test system of assay [13] is T-47D breast.
Assay [14] relates to UO-31 renal.
For assay [15], the system named is K-562 leukemia.

SMILES strings stand for the structures.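 How tested: cells in 96-well plates exposed to compound for 48 hours at five concentrations. Definition used: TGI = concentration required for complete inhibition of growth.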

On to `CCOC1Oc2ccccc2-c2nc(N)ncc21` (stereo not drawn), for which the TGI was more than 100 µM in assay [1]; more than 100 µM in [2]; more than 100 µM in assay [3]; more than 100 µM in assay [4]; more than 100 µM in [5]; 66.3 µM in [6]. The TGI in assay [7] is more than 100 µM; in assay [8] it was 72.8 µM; in [9] it was more than 100 µM; in assay [10], more than 100 µM; in assay [11] it was more than 100 µM; in [12], more than 100 µM. The TGI in assay [13] and in assay [14] was more than 100 µM throughout.

Regarding `O=[N+]([O-])c1ccc2nc(/C=C(\O)c3ccccc3)c(NC34CC5CC(CC(C5)C3)C4)nc2c1`, the TGI in [1], in [2], in [3], in assay [4], in assay [5] and in assay [6] was more than 10 µM in each case. The TGI in assay [7], in assay [8], in [9], in assay [10], in [11] and in [13] was more than 10 µM throughout. In assay [14], this compound showed a TGI of more than 10 µM.

Take `COc1ccccc1CC1(O)OC(=O)c2ccccc21` (stereo not drawn): the TGI in assay [1], in [2], in [3], in [15], in [4] and in assay [5] was more than 100 µM in each case. Besides, the TGI in assay [6], in assay [7], in assay [8], in assay [9], in assay [10] and in [11] was more than 100 µM throughout. Further, the TGI in [12], in [13] and in assay [14] was more than 100 µM throughout.

Consider `Clc1ccc(C2=Cc3nc2c(-c2ccccc2)c2ccc([nH]2)c(-c2ccccc2)c2nc(c(-c4ccccc4)c4ccc([nH]4)c3-c3ccccc3)C=C2)cc1`, for which the TGI in assay [1], in assay [2], in assay [3], in [15], in [4] and in [5] was more than 62.5 µM each time. The TGI in [6], in assay [7], in assay [8], in assay [9], in assay [10] and in assay [11] was more than 62.5 µM in each case. In addition, the TGI in [12], in [13] and in [14] was more than 62.5 µM in each case.

For the compound `CCOC(=O)COc1cc(-c2ccccc2)nc2cc(F)ccc12`, the TGI in [2], in [3], in assay [15], in [4], in assay [5] and in assay [6] was more than 100 µM in each case. In addition, the TGI in [7], in assay [9], in assay [10], in assay [11] and in [13] was more than 100 µM each time.

`COc1cc(/C=C/C(=O)N[C@@H]2C(=O)N3[C@@H]2SC(C)(C)[C@@H]3C(=O)O)ccc1O`: the TGI in assay [1], in [2], in [3], in [15], in assay [4] and in assay [5] was more than 100 µM each time. In addition, the TGI in assay [6], in assay [7], in assay [8], in assay [9], in assay [10] and in [11] was more than 100 µM in each case. In addition, the TGI in assay [12], in [13] and in assay [14] was more than 100 µM each time.

On to `CCCCCCCCCCCCCCCCCCOC(COP(=O)(O)OCC1OC(n2cc(F)c(=O)[nH]c2=O)CC1O)COP(=O)(O)OCC1OC(n2ccc(N)nc2=O)C(O)C1O` (stereo not drawn), for which the TGI in assay [1] was more than 100 µM; in assay [2], more than 72.9 µM; in [3], more than 100 µM; in [15], more than 100 µM; in [4] it was more than 100 µM; in assay [5], more than 100 µM. Further, the TGI in assay [6] was more than 100 µM; in assay [7], more than 100 µM; in assay [8], more than 100 µM; in assay [9] it was more than 100 µM; in assay [10] it was more than 100 µM; in assay [11] it was 31.1 µM. The TGI in [12] was 41.2 µM; in assay [13] it was more than 100 µM; in assay [14], more than 100 µM.

Turning to `Cc1ccc(C2SCc3nc4ccccc4n32)cc1` (stereo not drawn), the TGI in assay [1] was more than 100 µM; in assay [2], 3.45 µM; in [3] it was more than 100 µM; in [15], 14.8 µM; in assay [4], 20.6 µM; in assay [5] it was 20.3 µM. Moreover, the TGI was 5.01 µM in [6]; 6.55 µM in assay [7]; 85.6 µM in [8]; more than 100 µM in assay [9]; 92.8 µM in assay [10]; 5.47 µM in assay [11]. Further, the TGI was more than 100 µM in assay [12], more than 100 µM in assay [13] and 22.6 µM in assay [14].

`O=C1/C(=C\c2cccc(Oc3ccccc3)c2)SC(c2ccccc2)N1Cc1ccccc1` (stereo not drawn): the TGI is more than 100 µM in [1]; 22 µM in assay [2]; more than 100 µM in assay [3]; more than 100 µM in [15]; 83.8 µM in [4]; more than 100 µM in assay [5]. Further, the TGI is 76.2 µM in assay [6]; 90.9 µM in assay [7]; 46.1 µM in assay [8]; 70 µM in assay [9]; more than 100 µM in assay [10]; 37.3 µM in assay [11]. Besides, the TGI in [12] was 92.8 µM; in assay [13], 98.3 µM; in assay [14], more than 100 µM.

As to `COc1c(OC)c(OC)c2c(=O)c(OC)c(-c3ccc4c(c3)OCO4)oc2c1OC`, the TGI in assay [1], in assay [2], in assay [3], in assay [15], in assay [4] and in [5] was more than 100 µM throughout. For the same compound, the TGI in assay [6], in assay [7], in assay [8], in assay [9], in assay [10] and in assay [11] was more than 100 µM in each case. Further, the TGI in assay [12], in [13] and in assay [14] was more than 100 µM each time.
